SMILES strings stand for the structures.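 The compound was tested at five concentrations on cells cultured in 96-well plates, with a 48-hour exposure period. GI50 marks 50% less growth.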 Calls of active or inactive are those of the source. Rule as the data show it: active = GI50 up to about 1.1 µM and inactive = higher. Some results are limits rather than exact numbers.

Common to all, as to test: NCI tumour cell line growth inhibition, 48 h
Experiment [1] deals with A549.
In experiment [2] the test system is BT-549.
For experiment [3], the system named is COLO 205.
Experiment [4] concerns HCT-15.
Experiment [5] concerns HOP-62.
Experiment [6] relates to HOP-92.
Experiment [7] concerns HT-29.
Experiment [8] concerns Hs-578T.
In experiment [9] the test system is K562.
For experiment [10], the system named is KM12.
Experiment [11] relates to LOX IMVI.
Experiment [12] has as its system M14.
For experiment [13], the system named is NCI-H460.
For experiment [14], the system named is RXF 393.
The subject of experiment [15] is SF-295.
Experiment [16] has as its system SK-MEL-5.
Experiment [17] concerns SK-OV-3.
Experiment [18] deals with SW-620.
Experiment [19] relates to T47D.
Experiment [20] relates to UACC-62.

For `Cn1c(=O)c2nc(CCCCc3nc4ccccc4[nH]3)[nH]c2n(C)c1=O`, the GI50 was > 100 µM (inactive) in experiment [1]; > 100 µM (inactive) in [2]; > 100 µM (inactive) in experiment [3]; over 100 µM in experiment [4]; > 100 µM (inactive) in experiment [5]; 21.4 µM (inactive) in [6]. In addition, the GI50 in experiment [7] was > 100 µM (inactive); in experiment [8], 30.3 µM (inactive); in experiment [9], > 100 µM (inactive); in experiment [10], > 100 µM (inactive); in experiment [11], > 100 µM (inactive); in [12], > 100 µM (inactive). For the same compound, the GI50 in [13], in [14], in experiment [15], in [16], in [17] and in [18] was > 100 µM (inactive) throughout. The GI50 in [19] and in experiment [20] was > 100 µM (inactive) throughout.
Take `O=C(Nc1ccccc1)OCCN=c1c2ccccc2ccc2ccccc12`: the GI50 in [1] is 19.9 µM (inactive); in experiment [2], 13 µM (inactive); in experiment [3], 21 µM (inactive); in experiment [4], 26.1 µM; in [5], 28.2 µM (inactive); in experiment [6], 18.4 µM (inactive). The GI50 in experiment [7] was 17.2 µM (inactive); in [8], 11.5 µM (inactive); in [9] it was 14.7 µM (inactive); in experiment [10] it was 19.1 µM (inactive); in experiment [11], 20.3 µM (inactive); in experiment [12], 19.1 µM (inactive). For the same compound, the GI50 was 22.8 µM (inactive) in experiment [13]; 23.8 µM (inactive) in experiment [14]; 14 µM (inactive) in experiment [15]; 14.1 µM (inactive) in [16]; 32.1 µM (inactive) in [17]; 31.9 µM (inactive) in [18]. Also, the GI50 in experiment [19] is 13.1 µM (inactive); in experiment [20], 15 µM (inactive).
As for `Cc1cc(=O)n2nc(SCc3ccccc3)sc2n1`, the GI50 was > 100 µM (inactive) in experiment [1]; > 100 µM (inactive) in [2]; > 100 µM (inactive) in [3]; over 100 µM in experiment [4]; > 100 µM (inactive) in [5]; 94.8 µM (inactive) in experiment [6]. Also, the GI50 in experiment [7] is > 100 µM (inactive); in experiment [8] it was 25.4 µM (inactive); in experiment [9], 18.2 µM (inactive); in experiment [10], > 100 µM (inactive); in experiment [11], 77.4 µM (inactive); in experiment [12], > 100 µM (inactive). Further, the GI50 in experiment [13] was > 100 µM (inactive); in experiment [14], 60.3 µM (inactive); in experiment [15], > 100 µM (inactive); in [16] it was 43.2 µM (inactive); in experiment [17], > 100 µM (inactive); in experiment [18] it was > 100 µM (inactive). The GI50 was 42.3 µM (inactive) in experiment [19] and 28.4 µM (inactive) in experiment [20].
On to `CCSc1s/c(=N/c2ccc(/N=c3\sc(C)c(SC)s3)cc2)sc1-c1ccc(C)cc1`, for which the GI50 in experiment [1] was > 100 µM (inactive); in experiment [2] it was > 100 µM (inactive); in experiment [3], > 100 µM (inactive); in experiment [4], over 100 µM; in experiment [5], > 100 µM (inactive); in [6], > 100 µM (inactive). Further, the GI50 in [7], in experiment [8], in experiment [9], in experiment [10], in experiment [11] and in experiment [12] was > 100 µM (inactive) throughout. Besides, the GI50 in experiment [13], in experiment [14], in experiment [15], in experiment [16], in [17] and in [18] was > 100 µM (inactive) each time. Moreover, the GI50 in [19] and in experiment [20] was > 100 µM (inactive) throughout.
As to `Cc1cc(O)c2c(c1)C(C1c3cccc(O)c3C(=O)c3c(O)cc(C)cc31)c1cccc(O)c1C2=O` (stereo not given), the GI50 in experiment [1] was 0.239 µM (active); in [2], 0.292 µM (active); in [3] it was 0.177 µM (active); in [4] it was 0.317 µM; in [5], 0.432 µM (active); in experiment [6] it was 0.258 µM (active). For the same compound, the GI50 in [7] is 0.378 µM (active); in [8] it was 0.175 µM (active); in [9], 1.02 µM (active); in experiment [10] it was 0.166 µM (active); in experiment [11] it was 0.354 µM (active); in experiment [12], 0.327 µM (active). For the same compound, the GI50 in [13] is 0.198 µM (active); in experiment [14], 0.22 µM (active); in [15], 0.286 µM (active); in [16], 0.212 µM (active); in experiment [17], 0.356 µM (active); in [18], 0.448 µM (active). Also, the GI50 in experiment [19] is 0.631 µM (active); in experiment [20], 0.269 µM (active).
Regarding `O=C(Nc1ccc2ncccc2c1)c1cc2c(cc1Cl)Sc1nccn1S2(=O)=O`, the GI50 in experiment [1] is 17.5 µM (inactive); in experiment [2], 15.6 µM (inactive); in experiment [3], 18.7 µM (inactive); in [4], 11 µM; in experiment [5], 16.4 µM (inactive); in experiment [6], 27.7 µM (inactive). Moreover, the GI50 in experiment [7] is 16.7 µM (inactive); in [8], 31.2 µM (inactive); in [9] it was 6.31 µM (inactive); in [10] it was 6.4 µM (inactive); in experiment [11] it was 12.9 µM (inactive); in experiment [12] it was 15.1 µM (inactive). The GI50 is 15.7 µM (inactive) in [13]; 15.6 µM (inactive) in experiment [14]; 15.9 µM (inactive) in experiment [15]; 15.3 µM (inactive) in experiment [16]; 33.3 µM (inactive) in experiment [17]; 16 µM (inactive) in experiment [18]. Besides, the GI50 was 14.7 µM (inactive) in [19] and 16.6 µM (inactive) in experiment [20].
In the case of `O=C1c2cccc3cc([N+](=O)[O-])cc(c23)C(=O)N1O`, the GI50 in experiment [1] is 33.6 µM (inactive); in experiment [2], 28.6 µM (inactive); in experiment [3], 51.1 µM (inactive); in [4], 32.7 µM; in experiment [5], 32.8 µM (inactive); in [6], 57 µM (inactive). For the same compound, the GI50 was 31 µM (inactive) in experiment [7]; 38.7 µM (inactive) in experiment [8]; 36.8 µM (inactive) in experiment [9]; 20.6 µM (inactive) in [10]; 25.9 µM (inactive) in [11]; 39.2 µM (inactive) in experiment [12]. For the same compound, the GI50 is 27.2 µM (inactive) in [13]; 33 µM (inactive) in experiment [14]; 46.1 µM (inactive) in experiment [15]; 35.6 µM (inactive) in experiment [16]; 46.9 µM (inactive) in experiment [17]; 38.2 µM (inactive) in experiment [18]. Further, the results for the GI50 in experiment [19] and in experiment [20] were 37.2 µM (inactive) and 23.9 µM (inactive), respectively.
Take `COc1ccc(Oc2cnn(C(Br)(Br)C(C)=O)c(=O)c2Br)cc1`: the GI50 in experiment [1] was 24 µM (inactive); in experiment [2], 17.3 µM (inactive); in experiment [3], 13.4 µM (inactive); in experiment [4] it was 16 µM; in experiment [5] it was 16.7 µM (inactive); in [6], 14.7 µM (inactive). Besides, the GI50 in experiment [7] was 15.3 µM (inactive); in experiment [8] it was 26.1 µM (inactive); in [9], 3.85 µM (inactive); in [10] it was 14.8 µM (inactive); in experiment [11], 11 µM (inactive); in [12] it was 13.9 µM (inactive). The GI50 was 18.8 µM (inactive) in experiment [13]; 6.08 µM (inactive) in [14]; 18.2 µM (inactive) in experiment [15]; 16 µM (inactive) in experiment [16]; 24.3 µM (inactive) in experiment [17]; 4.56 µM (inactive) in experiment [18]. The GI50 in [19] is 18.5 µM (inactive); in experiment [20], 15.7 µM (inactive).
`Cn1/c(=N\N=C(\CNCCO)[C@@H](O)[C@@H]2OC(c3ccccc3)OC[C@H]2O)sc2ccccc21` (stereo not given in full): the GI50 in experiment [1] was 15.8 µM (inactive); in experiment [2] it was 21.1 µM (inactive); in experiment [3] it was 15.5 µM (inactive); in experiment [4], 25.5 µM; in experiment [5], 17.8 µM (inactive); in [6], 11 µM (inactive). The GI50 in [7] is 18.6 µM (inactive); in experiment [8] it was 14.8 µM (inactive); in experiment [9] it was 14.8 µM (inactive); in experiment [10], 17.1 µM (inactive); in experiment [11] it was 15.1 µM (inactive); in experiment [12] it was 13.2 µM (inactive). Further, the GI50 was 21.5 µM (inactive) in [13]; 16.1 µM (inactive) in experiment [14]; 18.7 µM (inactive) in experiment [15]; 14.9 µM (inactive) in experiment [16]; 18.4 µM (inactive) in [17]; 18 µM (inactive) in [18]. Also, the GI50 in experiment [19] was 20.1 µM (inactive); in experiment [20], 16.9 µM (inactive).
Consider `Cc1cn(C(=O)NC23CC4CC(CC(C4)C2)C3)c(=O)[nH]c1=O`, for which the GI50 in experiment [1] was 35.9 µM (inactive); in [2], 21.8 µM (inactive); in experiment [3] it was 24 µM (inactive); in [4], 25.3 µM; in experiment [5], > 100 µM (inactive); in experiment [6], 51.6 µM (inactive). Also, the GI50 in experiment [7] is 33.8 µM (inactive); in experiment [8], 32.7 µM (inactive); in [9], 31.6 µM (inactive); in experiment [10] it was 64.4 µM (inactive); in experiment [11], 27.5 µM (inactive); in experiment [12], 36.1 µM (inactive). Further, the GI50 in experiment [13] is 42.9 µM (inactive); in experiment [14] it was 21.6 µM (inactive); in [15] it was 36.5 µM (inactive); in [16], 38.3 µM (inactive); in [17] it was 34.4 µM (inactive); in experiment [18] it was 40.6 µM (inactive). Moreover, the GI50 was 31.3 µM (inactive) in experiment [19] and 21.8 µM (inactive) in experiment [20].

Values taken from ChEMBL document CHEMBL1201862, “PubChem BioAssay data set” (2004).
